One assay addresses T1, ERO1α (Homo sapiens, UniProt Q96HE7).
T1 sequence (Q96HE7 24-468): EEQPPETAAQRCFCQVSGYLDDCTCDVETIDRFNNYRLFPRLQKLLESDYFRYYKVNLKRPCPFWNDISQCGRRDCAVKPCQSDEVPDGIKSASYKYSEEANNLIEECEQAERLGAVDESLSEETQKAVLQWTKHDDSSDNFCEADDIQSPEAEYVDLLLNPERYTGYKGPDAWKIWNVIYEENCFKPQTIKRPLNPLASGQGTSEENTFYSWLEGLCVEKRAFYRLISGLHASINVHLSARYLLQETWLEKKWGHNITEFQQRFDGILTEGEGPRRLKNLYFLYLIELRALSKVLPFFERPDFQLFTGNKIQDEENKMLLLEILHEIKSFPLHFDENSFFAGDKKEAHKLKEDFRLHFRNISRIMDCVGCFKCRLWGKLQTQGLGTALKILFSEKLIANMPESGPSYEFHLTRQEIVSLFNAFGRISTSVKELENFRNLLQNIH
Description: ERO1α activity assay. The format is biochemical.

The target of a further assay is PDI (Homo sapiens, UniProt P07237). Description: PDI activity assay. The format is biochemical.
Assay [1] is described as follows: thiol-reacting (GSH) activity assay. In kind it is biochemical.
For assay [2] the following is noted: from studies; cited from earlier work.

Molecules are shown by their SMILES. “Also recorded” adds a separate entry of the source. Where two headings read alike, the source gives them in different places.

Sequence of PDI (P07237 18-508, species assumed): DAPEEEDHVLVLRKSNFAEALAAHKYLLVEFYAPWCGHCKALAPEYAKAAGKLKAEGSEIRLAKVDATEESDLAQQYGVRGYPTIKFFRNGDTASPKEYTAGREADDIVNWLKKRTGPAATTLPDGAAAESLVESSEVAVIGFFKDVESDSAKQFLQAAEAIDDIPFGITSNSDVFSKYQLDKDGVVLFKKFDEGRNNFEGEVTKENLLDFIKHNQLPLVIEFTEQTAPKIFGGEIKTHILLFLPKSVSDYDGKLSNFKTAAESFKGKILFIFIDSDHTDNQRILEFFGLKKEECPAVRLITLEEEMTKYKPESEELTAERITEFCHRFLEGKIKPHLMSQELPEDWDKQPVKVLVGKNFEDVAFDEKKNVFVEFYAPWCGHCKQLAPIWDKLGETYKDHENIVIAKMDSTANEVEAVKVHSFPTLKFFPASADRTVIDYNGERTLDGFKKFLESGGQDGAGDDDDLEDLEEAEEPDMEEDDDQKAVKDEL

On to `O=C(CSc1nc(O)cc(O)n1)N1c2ccccc2Sc2ccccc21` [B12-5], for which the IC50 at ERO1α (read-out: IC50, ERO1α activity) turned out to be 7.9 µM; on ERO1α (read-out: IC50, ERO1α inhibitor) it was 7.9 µM. Also, the “PDI inhibition at 100 μM (%)” value at PDI (100 μM) stood at 8.2 ± 2%. Further, at PDI (at or up to 100 μM), the “effect on PDI activity” value was “minimal effect; also recorded: did not affect”. Also, the “GSH inhibition at 100 μM (%)” value in assay [1] (100 μM) is reported as 9.7 ± 2%. Further, the “effect on thiol-reacting activity” value in assay [1] (at or up to 100 μM) is “minimal effect; also recorded: did not affect”.

Take `O=C(O)c1cc(N2N=C(C(F)(F)F)/C(=C/c3ccc(-c4ccccc4)o3)C2=O)ccc1Cl` [EN460]: in assay [2], the thiol-reacting activity entry is listed as “has thiol-reacting activity”.

These data come from US20240366624A1, “METHODS AND COMPOSITIONS FOR TREATING THROMBOTIC DISEASE” (Washington University, priority 2023, published 2024).
